The source of these data is patent publication US20220323406A1, “METHODS AND COMPOSITIONS FOR DIFFERENTIATING STEM CELLS” (Massachusetts Institute of Technology, priority 2019, published 2022).

Assay [1] deals with ENR+CD organoids (ISC to Paneth cell differentiation). Description: Primary screen: basal (non-stimulated) lysozyme secretion LYZ.NS, 2.5-D 384-well ENR+CD organoid differentiation. Type of assay: cell-based, mouse. An excerpt: (§1) High-throughput screening.
For assay [2] the test system is unchanged. In words: Primary screen: CCh-stimulated lysozyme secretion LYZ.S, 2.5-D 384-well ENR+CD organoid differentiation. It counts as cell-based, mouse. As to conditions: primary screen.
From the text: as §1

Assay [3] deals with ENR+CD organoids. Description: Primary screen: ATP (CellTiter-Glo 3D, CTG) cell number/viability, 2.5-D 384-well ENR+CD organoids. (In ATP-based viability assays light output follows the ATP content of the culture.)
Where [4] appears, read: primary screen, dose 0.08 uM, FC relative to plate median.
Setting [5] is: primary screen, dose 0.08 uM, standard z score.
The mark [6] stands for this setting: primary screen, dose 0.40 uM, FC relative to plate median.
The mark [7] stands for this setting: primary screen, dose 0.40 uM, standard z score.
Setting [8] is: primary screen, dose 2.00 uM, FC relative to plate median.
[9] abbreviates: primary screen, dose 2.00 uM, standard z score.
Setting [10] is: primary screen, dose 10.00 uM, FC relative to plate median.
Where [11] appears, read: primary screen, dose 10.00 uM, standard z score.
Where [12] appears, read: dose 0.08 uM, FC relative to plate median.
Setting [13] is: dose 0.40 uM, FC relative to plate median.
Setting [14] is: dose 2.00 uM, FC relative to plate median.
The mark [15] stands for this setting: dose 10.00 uM, FC relative to plate median.
[16] abbreviates: primary screen, 1st dose row of the treatment (0.08 uM by row order; dose not reprinted).
Where [17] appears, read: primary screen, 2nd dose row of the treatment (0.40 uM by row order; dose not reprinted).
[18] abbreviates: primary screen, 3rd dose row of the treatment (2.00 uM by row order; dose not reprinted).
The mark [19] stands for this setting: primary screen, 4th dose row of the treatment (10.00 uM by row order; dose not reprinted).
Setting [20] is: 1st dose row of the treatment (0.08 uM by row order; dose not reprinted).
Where [21] appears, read: 2nd dose row of the treatment (0.40 uM by row order; dose not reprinted).
The mark [22] stands for this setting: 3rd dose row of the treatment (2.00 uM by row order; dose not reprinted).
Setting [23] is: 4th dose row of the treatment (10.00 uM by row order; dose not reprinted).
Where [24] appears, read: primary screen, standard z score, dose 0.08 uM.
Where [25] appears, read: primary screen, standard z score, dose 0.40 uM.
[26] abbreviates: primary screen, standard z score, dose 2.00 uM.
The mark [27] stands for this setting: primary screen, standard z score, dose 10.00 uM.
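Wherever Dose.FC.CTG is given: compounds given at plating and again on day 3 over a 6-day differentiation from ENR+CV stem-cell-enriched precursors, ATP measured on day 6, plate median as control.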
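Wherever SSMD.CTG.Rep (strictly standardized mean difference) is given: compounds given at plating and again on day 3 over a 6-day differentiation from ENR+CV stem-cell-enriched precursors, ATP measured on day 6, plate median as control.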
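Wherever Z.CTG (standard z score) is given: compounds given at plating and again on day 3 over a 6-day differentiation from ENR+CV stem-cell-enriched precursors, ATP measured on day 6, plate median as control.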
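Wherever Z.CTG is given: compounds given at plating and again on day 3 over a 6-day differentiation from ENR+CV stem-cell-enriched precursors, ATP measured on day 6, plate median as control.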

Take `O=S(=O)(c1ccccc1)c1cnc2c(N3CCNCC3)cccc2c1` [SB742457]: the Dose.FC.LYZ.NS is listed as 0.012 log2 fold change in assay [1] (setting [4]), −0.062 log2 fold change in assay [1] (setting [6]), 0.069 log2 fold change in assay [1] (setting [8]) and 0.013 log2 fold change in assay [1] (setting [10]). Further, the Z.LYZ.NS is on record as 0.108 in assay [1] (setting [5]), −0.537 in assay [1] (setting [7]), 0.598 in assay [1] (setting [9]) and 0.115 in assay [1] (setting [11]). Moreover, the Dose.FC.LYZ.S was −0.055 log2 fold change in assay [2] (setting [12]), −0.029 log2 fold change in assay [2] (setting [13]), −0.003 log2 fold change in assay [2] (setting [14]) and −0.006 log2 fold change in assay [2] (setting [15]). For the same molecule, the Dose.FC.CTG is recorded as −0.290 log2 fold change in assay [3] (setting [4]), −0.126 log2 fold change in assay [3] (setting [6]), −0.177 log2 fold change in assay [3] (setting [8]) and −0.294 log2 fold change in assay [3] (setting [10]). The Z.CTG in assay [3] (setting [5]) is recorded as −0.693; in assay [3] (setting [7]), −0.300; in assay [3] (setting [9]), −0.423; in assay [3] (setting [11]), −0.702.

With `CCn1c(N)c(C(=O)NC)c(=O)c2ccc(C#C[C@@](C)(O)COC)nc21` [SAR131675], the Dose.FC.LYZ.NS is listed as 0.055 log2 fold change in assay [1] (setting [4]), 0.089 log2 fold change in assay [1] (setting [6]), 0.021 log2 fold change in assay [1] (setting [8]) and −0.088 log2 fold change in assay [1] (setting [10]). The Z.LYZ.NS in assay [1] (setting [5]) is recorded as 0.483; in assay [1] (setting [7]) it was 0.774; in assay [1] (setting [9]), 0.181; in assay [1] (setting [11]) it was −0.766. The Dose.FC.LYZ.S in assay [2] (setting [12]) is listed as 0.148 log2 fold change; in assay [2] (setting [13]), 0.096 log2 fold change; in assay [2] (setting [14]), 0.026 log2 fold change; in assay [2] (setting [15]) it was 0.000 log2 fold change. Moreover, the Dose.FC.CTG in assay [3] (setting [4]) is given as 0.175 log2 fold change; in assay [3] (setting [6]), −0.084 log2 fold change; in assay [3] (setting [8]), 0.071 log2 fold change; in assay [3] (setting [10]), 0.062 log2 fold change. Also, the Z.CTG in assay [3] (setting [5]) was 0.419; in assay [3] (setting [7]), −0.201; in assay [3] (setting [9]), 0.169; in assay [3] (setting [11]), 0.149.

`COc1cc(F)c(C(C)C)cc1-c1ccc(C(F)(F)F)cc1CN1C(=O)O[C@H](c2cc(C(F)(F)F)cc(C(F)(F)F)c2)[C@@H]1C` [Anacetrapib (MK-0859)]: the Dose.FC.LYZ.NS is listed as 0.013 log2 fold change in assay [1] (primary screen, dose 0.08 uM); 0.007 log2 fold change in assay [1] (primary screen, dose 0.40 uM); −0.015 log2 fold change in assay [1] (primary screen, dose 2.00 uM); −0.036 log2 fold change in assay [1] (primary screen, dose 10.00 uM). Also, the “Z.LYZ.NS (standard z score)” value in assay [1] (primary screen, dose 0.08 uM) is reported as 0.112; in assay [1] (primary screen, dose 0.40 uM) it was 0.060; in assay [1] (primary screen, dose 2.00 uM), −0.129; in assay [1] (primary screen, dose 10.00 uM) it was −0.314. The Dose.FC.LYZ.S in assay [2] (dose 0.08 uM) is 0.051 log2 fold change; in assay [2] (dose 0.40 uM), −0.002 log2 fold change; in assay [2] (dose 2.00 uM), −0.046 log2 fold change; in assay [2] (dose 10.00 uM), −0.036 log2 fold change. The Dose.FC.CTG in assay [3] (primary screen, dose 0.08 uM) is on record as −0.090 log2 fold change; in assay [3] (primary screen, dose 0.40 uM), 0.035 log2 fold change; in assay [3] (primary screen, dose 2.00 uM) it was −0.094 log2 fold change; in assay [3] (primary screen, dose 10.00 uM), 0.031 log2 fold change. The “Z.CTG (standard z score)” value in assay [3] (primary screen, dose 0.08 uM) was −0.214; in assay [3] (primary screen, dose 0.40 uM), 0.084; in assay [3] (primary screen, dose 2.00 uM), −0.225; in assay [3] (primary screen, dose 10.00 uM) it was 0.075.

As to `C=CCNC1=C2C[C@@H](C)C[C@H](OC)[C@H](O)[C@@H](C)/C=C(\C)[C@H](OC(N)=O)[C@@H](OC)/C=C\C=C(/C)C(=O)NC(=CC1=O)C2=O` [17-AAG (Tanespimycin)], the “SSMD.LYZ.NS_Rep (strictly standardized mean difference)” value in assay [1] (setting [16]) is reported as −1.180; in assay [1] (setting [17]) it was −1.186; in assay [1] (setting [18]), −1.053; in assay [1] (setting [19]), −1.183. For the same molecule, the Dose.FC.LYZ.NS in assay [1] (primary screen, dose 0.08 uM) is recorded as −0.193 log2 fold change; in assay [1] (primary screen, dose 0.40 uM), −0.205 log2 fold change; in assay [1] (primary screen, dose 2.00 uM), −0.142 log2 fold change; in assay [1] (primary screen, dose 10.00 uM) it was −0.187 log2 fold change. In addition, the “Z.LYZ.NS (standard z score)” value is −1.682 in assay [1] (primary screen, dose 0.08 uM); −1.786 in assay [1] (primary screen, dose 0.40 uM); −1.239 in assay [1] (primary screen, dose 2.00 uM); −1.631 in assay [1] (primary screen, dose 10.00 uM). For the same molecule, the “SSMD.LYZ.S_Rep (strictly standardized mean difference)” value in assay [2] (setting [20]) is −1.387; in assay [2] (setting [21]), −1.428; in assay [2] (setting [22]), −1.462; in assay [2] (setting [23]) it was −1.655. Also, the “Z.LYZ.S (standard z score)” value in assay [2] (setting [20]) is listed as −1.826; in assay [2] (setting [21]), −2.199; in assay [2] (setting [22]) it was −2.219; in assay [2] (setting [23]) it was −1.975. The Dose.FC.LYZ.S in assay [2] (dose 0.08 uM) is on record as −0.282 log2 fold change; in assay [2] (dose 0.40 uM), −0.340 log2 fold change; in assay [2] (dose 2.00 uM) it was −0.343 log2 fold change; in assay [2] (dose 10.00 uM), −0.306 log2 fold change. For the same molecule, the “SSMD.CTG.Rep (strictly standardized mean difference)” value in assay [3] (setting [16]) is −0.926; in assay [3] (setting [17]), −1.023; in assay [3] (setting [18]) it was −1.783; in assay [3] (setting [19]) it was −1.348. Besides, the Dose.FC.CTG in assay [3] (primary screen, dose 0.08 uM) is recorded as −1.012 log2 fold change; in assay [3] (primary screen, dose 0.40 uM) it was −1.262 log2 fold change; in assay [3] (primary screen, dose 2.00 uM), −1.459 log2 fold change; in assay [3] (primary screen, dose 10.00 uM), −1.446 log2 fold change. Moreover, the “Z.CTG (standard z score)” value in assay [3] (primary screen, dose 0.08 uM) is −2.418; in assay [3] (primary screen, dose 0.40 uM) it was −3.015; in assay [3] (primary screen, dose 2.00 uM), −3.486; in assay [3] (primary screen, dose 10.00 uM) it was −3.454.

In the case of `COc1ccc(C[C@@H](C)NC[C@H](O)c2ccc(O)c(NC=O)c2)cc1.COc1ccc(C[C@@H](C)NC[C@H](O)c2ccc(O)c(NC=O)c2)cc1.O=C(O)/C=C/C(=O)O` [Formoterol Hemifumarate], the Dose.FC.LYZ.NS in assay [1] (primary screen, dose 0.08 uM) is reported as 0.145 log2 fold change; in assay [1] (primary screen, dose 0.40 uM), 0.073 log2 fold change; in assay [1] (primary screen, dose 2.00 uM), 0.048 log2 fold change; in assay [1] (primary screen, dose 10.00 uM), 0.013 log2 fold change. Moreover, the Z.LYZ.NS in assay [1] (setting [24]) is recorded as 1.263; in assay [1] (setting [25]) it was 0.638; in assay [1] (setting [26]), 0.420; in assay [1] (setting [27]), 0.114. The Dose.FC.LYZ.S in assay [2] (dose 0.08 uM) stood at 0.206 log2 fold change; in assay [2] (dose 0.40 uM) it was 0.293 log2 fold change; in assay [2] (dose 2.00 uM) it was 0.090 log2 fold change; in assay [2] (dose 10.00 uM), 0.011 log2 fold change. The Dose.FC.CTG in assay [3] (primary screen, dose 0.08 uM) is given as 0.294 log2 fold change; in assay [3] (primary screen, dose 0.40 uM), 0.265 log2 fold change; in assay [3] (primary screen, dose 2.00 uM), 0.242 log2 fold change; in assay [3] (primary screen, dose 10.00 uM), 0.253 log2 fold change. Also, the Z.CTG in assay [3] (setting [24]) stood at 0.703; in assay [3] (setting [25]) it was 0.633; in assay [3] (setting [26]), 0.578; in assay [3] (setting [27]) it was 0.604.

Take `O=C(Nc1ccccc1)c1cc([N+](=O)[O-])ccc1Cl` [GW9662]: the “Dose.FC.LYZ.NS (log2 fold change)” value in assay [1] (primary screen, dose 0.08 uM) is reported as 0.035; in assay [1] (primary screen, dose 0.40 uM), 0.098; in assay [1] (primary screen, dose 2.00 uM), 0.046; in assay [1] (primary screen, dose 10.00 uM) it was 0.030. Besides, the “Z.LYZ.NS (standard z score)” value in assay [1] (primary screen, dose 0.08 uM) is listed as 0.305; in assay [1] (primary screen, dose 0.40 uM), 0.852; in assay [1] (primary screen, dose 2.00 uM) it was 0.400; in assay [1] (primary screen, dose 10.00 uM), 0.264. The “Dose.FC.LYZ.S (log2 fold change)” value is reported as 0.036 in assay [2] (dose 0.08 uM), 0.080 in assay [2] (dose 0.40 uM), 0.093 in assay [2] (dose 2.00 uM) and 0.020 in assay [2] (dose 10.00 uM). Also, the “Dose.FC.CTG (log2 fold change)” value in assay [3] (primary screen, dose 0.08 uM) was found to be 0.115; in assay [3] (primary screen, dose 0.40 uM), 0.041; in assay [3] (primary screen, dose 2.00 uM), 0.212; in assay [3] (primary screen, dose 10.00 uM), 0.133. Also, the “Z.CTG (standard z score)” value in assay [3] (primary screen, dose 0.08 uM) is reported as 0.274; in assay [3] (primary screen, dose 0.40 uM), 0.098; in assay [3] (primary screen, dose 2.00 uM) it was 0.508; in assay [3] (primary screen, dose 10.00 uM), 0.318.
